Test results reported in patent publication EP1298214A2, “Plant thioesterases” (Calgene LLC, priority 1990, dated 1991).

Legend:
Type in all cases: biochemical
[1] = tested on: pET3a control E. coli lysate; assay: Acyl-ACP hydrolysis by control E. coli lysate (unmodified pET3a); conditions: 1 hour induction with 1mM IPTG
Protocol: (§1) To assay for C12 thioesterase activity the following mixture is incubated at 30° for 30 min: "buffer" comprising 7mM KH2PO4-KOH pH 8, 20% v/v glycerol, 1mM dithiothreitol (DTT), 0.1% v/v Triton X100; sample to be tested for activity in the same or similar buffer as the "extraction buffer" described in Example 2; and 5µl of ^14C-radiolabeled lauroyl-ACP substrate for a total volume of 100µl and final lauroyl-ACP concentration of 0.5µM. Lauroyl-ACP substrate is prepared according to the method of Rock et al (Methods in Enzymology (1981) 72:397-403), using ACP prepared from Escherichia coli by the method of Rock and Cronan (Methods in Enzymology (1981) 71:341-351). The laurate is radiolabeled in the carboxylate group at a specific radioactivity of 50-60µCi/µmol.
(§2) The reaction is stopped by adding 0.5ml cold (0°) 10% v/v acetic acid. The fatty acid product of the hydrolytic enzyme action is extracted away from the unhydrolyzed substrate by adding 1ml diethyl ether and mixing vigorously. After settling for a few minutes the upper ether layer is transferred to 5ml scintillation fluid for determination of radioactivity by liquid scintillation spectrometry. Additional ether extractions may be performed to recover remaining traces of the reaction product for more accurate quantitation of the enzyme activity if desired. The amount of ether-extracted radioactivity is a direct measure of C12-preferring acyl-ACP thioesterase activity, provided the amount of enzyme is not sufficient to hydrolyze more than about 25% of the substrate. With greater activity than this the relationship between radioactivity in the ether layer and the quantity of enzyme becomes markedly nonlinear. The enzyme preparation must then be diluted appropriately to bring the activity into the linear range of the assay.
A pET3a vector (Rosenberg, et al., Gene (1987) 56:125-135) is used in an E. coil strain BL21 (PE3) (Studier and Moffat, J. Mol. Biol. (1986) 189:113-130) host for this study. The pET3a vector contains a promoter and 33 bp of the 5' reading frame of bacteriophase T7. T7 polymerase is under the regulatory control of an isopropyl-b-D-thiogalactopyranoside (IPTG)-inducible lac UV5 promoter found in the E. coli BL21 (DE3) strain. Thus, by the addition of IPTG to E. coli BL21 (DE3) transformed with pET3a, the T7 promoter will be activated.
Constructs are prepared containing the truncated cDNA of Fig. 2 fused in reading frame by deletion of the BamHI/EcoRI fragment and replacement of the thioesterase sequence. E. coli are transformed with pET3a constructs containing the thioesterase (pET3a-THI0) and unmodified pET3a as a control. The E. coli are grown at 37°C in liquid medium and expression is induced by the addition of 1mM IPTG. […]

[2] = tested on: control induced E. coli lysate; assay: Acyl-ACP hydrolysis by control E. coli lysate (bay thioesterase gene in opposite orientation); conditions: Dilution 1/4000, one hour induction with 0.1mM IPTG
Protocol: as §1, §2
The resulting construct, pCGN3823, and a control Bluescribe construct having the bay thioesterase gene inserted in the opposite orientation are transformed into E. coli. The E. coli cells are grown at 37°C in liquid medium and expression from the lac promoter is induced by addition of IPTG to a final concentration of 0.1mM IPTG. Following one hour of induction, cells are harvested, lysed and assayed as described above for the truncated bay thioesterase.

[3] = molecular target: T1, Bay C12-preferring acyl-ACP thioesterase (Umbellularia californica, UniProt Q41635); assay: Bay thioesterase substrate specificity as a function of chain length, ammonium sulfate fraction; parameters: The cotyledons from such seeds are dissected from the other seed parts and stored frozen at -70°; This comprises the source tissue for enzyme extraction; from tissue; host or cells: immature seed cotyledons of Umbellularia californica; conditions: C8-ACP activity set to 1.0; label is acyl chain length of the acyl-ACP
T1 sequence (Q41635 84-382): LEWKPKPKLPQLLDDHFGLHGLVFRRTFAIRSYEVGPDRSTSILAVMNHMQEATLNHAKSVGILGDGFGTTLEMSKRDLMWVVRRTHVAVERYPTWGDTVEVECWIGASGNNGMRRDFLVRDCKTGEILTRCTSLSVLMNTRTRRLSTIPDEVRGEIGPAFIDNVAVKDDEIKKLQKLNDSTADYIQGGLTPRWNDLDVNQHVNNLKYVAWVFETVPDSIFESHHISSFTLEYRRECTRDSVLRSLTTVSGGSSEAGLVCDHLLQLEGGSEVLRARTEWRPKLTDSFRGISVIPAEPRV
Protocol: as §1, with “and 5µl of ^14C-radiolabeled lauroyl-ACP substrate for a total volume of 100µl” left out
as §2
The crude extract is subjected to ammonium sulfate fractionation as follows. Sufficient solid ammonium sulfate is gradually added with stirring over 30 min to achieve 70% saturation. The preparation is then stirred for a further 30 min. After centrifuging as described above, the pelleted material is resuspended in extraction buffer (2ml/g original tissue weight) and stirred for 10 min until dissolved. Ammonium sulfate is then added as before, but this time only sufficient to achieve 50% saturation. After centrifuging as before, the supernatant fraction is discarded. The pelleted material, which contains the C12-preferring acyl-ACP thioesterase, may be frozen by immersion in liquid nitrogen and then stored at -70° at this stage if desired. The resulting material is referred to as the "ammonium sulfate fraction." Very little of the C12-preferring acyl-ACP thioesterase activity is lost if the pellet is frozen very rapidly. […]

Row | Substance | Hydrolysis Activity (mean cpm in ether extract) [1] [cpm] | Hydrolysis Activity (mean cpm in ether extract) [2] [cpm] | Relative Thioesterase Activity [3]
1 | 14:0-ACP | 1271 | 0 | 4.0
2 | 16:0-ACP | 2848 | 13 | 4.7
3 | decanoyl-ACP [10:0-ACP] | 787 | 0 | 2.7
4 | lauroyl-ACP [12:0-ACP] | 1028 | 0 | 24.0
